Results reported in ChEMBL document CHEMBL1148078, “Isolation of Spongosine and 2'-Deoxyspongosine from a Western Australian Sponge of the Order Hadromerida (Tethyidae)” (J Nat Prod, 1994).
Active and inactive are the calls of the source.

Columns and labels:
Format in all cases: functional, organism-based
[1] = system: Candida albicans; test: Antimicrobial activity against Candida albicans at 200 ug/disk by disk diffusion assay
[2] = system: Saccharomyces pastorianus; test: Antimicrobial activity against Saccharomyces carlsbergensis at 200 ug/disk by disk diffusion assay
[3] = system: Pseudomonas aeruginosa; test: Antimicrobial activity against Pseudomonas aeruginosa at 200 ug/disk by disk diffusion assay
[4] = system: Staphylococcus aureus; test: Antimicrobial activity against Staphylococcus aureus at 200 ug/disk by disk diffusion assay
[5] = system: Escherichia coli; test: Antimicrobial activity against Escherichia coli at 200 ug/disk by disk diffusion assay

Measured: Activity

COc1nc(N)c2ncn([C@H]3C[C@H](O)[C@@H](CO)O3)c2n1
inactive: [1] | [2] | [3] | [4] | [5]

COc1nc(N)c2ncn([C@@H]3O[C@H](CO)[C@@H](O)[C@H]3O)c2n1
inactive: [1] | [2] | [3] | [4] | [5]
